# Test results: ChEMBL document CHEMBL5291721, “A preclinical secondary pharmacology resource illuminates target-adverse drug reaction associations of marketed drugs” (Nat Commun, 2023)
# Target: T1, Alpha-1A adrenergic receptor (Homo sapiens, UniProt P35348)
# T1 sequence (P35348 whole entry): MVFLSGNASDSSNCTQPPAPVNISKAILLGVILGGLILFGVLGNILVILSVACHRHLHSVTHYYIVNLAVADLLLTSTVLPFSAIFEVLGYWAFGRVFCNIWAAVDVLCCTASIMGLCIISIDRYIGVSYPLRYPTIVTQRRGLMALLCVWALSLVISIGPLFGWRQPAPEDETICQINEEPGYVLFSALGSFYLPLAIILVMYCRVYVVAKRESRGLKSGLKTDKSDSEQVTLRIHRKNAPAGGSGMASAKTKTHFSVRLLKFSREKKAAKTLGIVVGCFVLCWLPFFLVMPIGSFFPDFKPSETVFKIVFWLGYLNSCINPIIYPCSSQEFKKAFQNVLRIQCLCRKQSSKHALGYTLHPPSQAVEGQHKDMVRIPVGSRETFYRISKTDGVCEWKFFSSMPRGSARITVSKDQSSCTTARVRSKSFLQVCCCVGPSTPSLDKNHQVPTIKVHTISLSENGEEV
# Type: functional, cell-based
# Also: assay procedure not described here.
row,Compound,AC50 [µM]
1,CN1CCC[C@@H]1Cc1c[nH]c2ccc(CCS(=O)(=O)c3ccccc3)cc12,> 30
2,COc1nccnc1NS(=O)(=O)c1ccc(N)cc1,> 30
3,O=C(Nc1cccc2c(=O)cc(-c3nnn[nH]3)oc12)c1ccc(OCCCCc2ccccc2)cc1,> 30
4,NC(=O)c1nc(F)c[nH]c1=O,> 30
5,CN(C)CCCN1C(=O)c2cc([N+](=O)[O-])ccc2Oc2ccccc21,> 30
6,O=S(=O)(O)CCS [2-MERCAPTOETHANESULFONIC ACID],> 30
7,O=C(O)COc1nn(Cc2ccccc2)c2ccccc12 [BENDAZAC],> 30
8,Cc1ccc([C@@H]2O[C@H](CO)[C@@H](O)[C@H](O)[C@H]2O)cc1Cc1ccc(-c2ccc(F)cc2)s1 [CANAGLIFLOZIN ANHYDROUS],> 30
9,O=C(O)CCCc1ccc(N(CCCl)CCCl)cc1 [CHLORAMBUCIL],> 30
10,CN(C)CCN(Cc1ccc(Cl)cc1)c1ccccn1 [CHLOROPYRAMINE],6.52
11,O=C(O)c1cc(=O)c2ccccc2o1 [CHROMOCARB],> 30
12,CN(CC(=O)O)C(=N)N [CREATINE],> 30
13,N[C@@H](CSSC[C@H](N)C(=O)O)C(=O)O [CYSTINE],> 30
14,Cn1c(=O)c2c(ncn2CC(O)CO)n(C)c1=O (stereo not drawn) [DYPHYLLINE],> 30
15,C[C@]12CC[C@@H]3c4ccc(O)cc4CC[C@H]3[C@@H]1CC[C@@H]2OC(=O)CCC1CCCC1 [ESTRADIOL CYPIONATE],> 30
16,CC1(C)O[C@@H]2C[C@H]3[C@@H]4CCC5=CC(=O)CC[C@]5(C)[C@@]4(F)[C@@H](O)C[C@]3(C)[C@]2(C(=O)CCl)O1 [HALCINONIDE],> 30
17,C[C@]12CCC(=O)C=C1CC[C@@H]1[C@@H]2[C@@H](O)C[C@@]2(C)[C@H]1CC[C@]2(O)C(=O)COC(=O)CCC(=O)O [HYDROCORTISONE HEMISUCCINATE ANHYDROUS],> 30
18,N=C(N)NCc1cccc([123I])c1 [IOBENGUANE I 123],10.7
